{"source": "paper PMC7066135", "about": "“The lipoprotein Pal stabilises the bacterial outer membrane during constriction by a mobilisation-and-capture mechanism” (Nature Communications, 2020)", "key": {"[1]": {"tested_on": "Pal-mCherry in E. coli cells", "assay": "Fluorescence recovery after photobleaching (FRAP) of Pal-mCherry", "assay_type": "cell-based", "details": "non-dividing cells, average from 30 cells", "experimental": "Overnight supplemented M9-glucose (2 mM MgSO4, 0.1 mM CaCl2, 0.4% (w/v) D-glucose) cultures were diluted in fresh medium with appropriate antibiotics and IPTG for strains expressing TolA from plasmids. Cultures were grown at 37 °C to OD600 0.3. Cells were centrifuged at 7000 × g for 1 min, resuspended in 1 ml of fresh media and treated with CCCP (0.1 mM, RT for 5 min, Sigma #C2759) for PMF decoupling, sodium azide (50 µg ml^−1, RT for 30 min, Sigma #S2002) for ATPase inhibition or chloramphenicol (30 µg ml^−1, 37 °C for 30 min, Sigma #C0378) for translation inhibition. […]\nMicroscopy was performed on a Zeiss LSM 880/Axio Examiner Z1 motorised upright laser scanning microscope equipped with Argon multiline 458/488/514 nm (25 mW), and HeNe 561 nm (1 mW) and ×63 oil-immersion objective (Zeiss, NA 1.4) set to 37 °C. […] Two images were acquired before bleaching and ten images, with a time interval of 1 min, recorded after bleaching using an automatic time-course function. […] For all fluorescent images, corresponding differential interference contrast (DIC) images were recorded using transmitted light. All images were recorded using Zeiss Zen 2011 software.\nAll images were analysed using ImageJ software. Fluorescence distribution along x-axis of cells was determined by the plot profile function with a line width of 4 points for TIRFM images and 40 or 80 for FRAP images. […]"}, "[2]": {"molecular_target": "T1, C-terminal domain of wild-type TolA (Pseudomonas aeruginosa, UniProt P50600)", "T1 construct": "The C-terminal domain of Pseudomonas aeruginosa TolA (TolA^224–347) and its derivatives; His-tagged Im9 (fusion partner, factor Xa site) (N, cleaved yes); made in house; host or cells: E. coli BL21 (DE3)", "assay": "Stopped-flow fluorescence anisotropy, wild-type TolA", "assay_type": "binding, P. aeruginosa", "experimental": "(§1) Experiments were conducted on an Applied Photophysics SX20 instrument set up for 1:1 single mixing and thermostated using a circulating water bath at 25 °C. All stopped-flow experiments were carried out in 50 mM Tris pH 7.0, 100 mM NaCl and under pseudo-first-order conditions. […] Monochromator entrance and exit slits were set to 2 mm. A total of 4000–10,000 data points were collected for each reaction. At least four anisotropy traces were collected for each reaction and averaged for each time-dependence fit. All anisotropy traces were fit to a single exponential rate equation. Each reaction concentration was collected in triplicate and validated using recombinant protein from different protein purifications. SigmaPlot was used for linear regression analysis to fit the dependence of kobs on the varied concentration of TolA. Titrations were performed at increasing concentration of protein relative to a constant concentration of peptide at 1 μM. Experiments were typically performed with 4–10-s data collection periods.\n(§2) of mutations in vitro and in vivo. All in vitro measurements used the P. aeruginosa complex while all in vivo assays\n(§3) binding a 100-fold excess of the C-terminal domain of wild-type TolA (red) and TolA with its C-terminal α-helix removed\n(§4) tion yielding an observed rate (kobs). […]"}, "[3]": {"molecular_target": "T2, TolA224-344 lacking its short C-terminal α-helix (Pseudomonas aeruginosa, UniProt P50600)", "T2 construct": "Open symbols, TolA224-344 lacking its short; His-tagged Im9 (fusion partner, factor Xa site) (N); made in house; host or cells: E. coli BL21 (DE3)", "assay": "Fluorescence anisotropy titration, FITC-labelled TolB peptide, helix-truncated TolA", "assay_type": "binding, P. aeruginosa", "details": "versus wild-type TolA224-347", "experimental": "Fluorescence anisotropy experiments were used to observe the change in overall anisotropy of P. aeruginosa TolB^22–34 fluorescein isothiocyanate (FITC) in complex with the C-terminal domain of TolA. A titration curve was recorded using 40 μl fractions in a 96-well, black absorbent, 100 μl plate, n = 3.\nExperiments were carried out using either a CLARIOstar plate reader or a Fluoromax- 4 spectrofluorimeter (Horiba JobinYvon). Titrations were carried out between 0 and 1.2 mM TolA. […] FITC excitation wavelength used was 495 nm with an emission wavelength at 519 nm. All experiments were conducted in 50 mM Tris 100 mM NaCl pH 7.0 and used light-blocking tubes to minimize quenching.\n(§5) Data were fitted using the manufac-turer ’s software assuming a 1:1 binding model, validated by the resulting structure for the complex. From three independent measurements, average values for ΔH […] (±0.24 standard deviation (SD)) kcal.mol-1, ΔS +11.8 (±2.14 SD) cal.K-1 […]\n(§6) form of an isolated peptide. b, Binding of TolB22-34 to the C-terminal domain of 15N-labelled TolA224-347 from P. aeruginosa followed by changes in 1H, 15N-HSQC spectra, >80% of all TolA peaks were perturbed by TolB22-33 binding. Every peak was […]\n(§7) and free (32%) TolA. […]\n(§8) five-fold weaker binding than the E. coli complex. c, Fluorescence anisotropy binding curves for P. aeruginosa TolB22-33 binding the C-terminal domain of TolA. […]"}, "[4]": {"molecular_target": "T3, TolA with its C-terminal α-helix removed (Pseudomonas aeruginosa, UniProt P50600)", "T3 construct": "Open symbols, TolA224-344 lacking its short; His-tagged Im9 (fusion partner, factor Xa site) (N); made in house; host or cells: E. coli BL21 (DE3)", "assay": "Stopped-flow fluorescence anisotropy, helix-truncated TolA", "assay_type": "binding, P. aeruginosa", "experimental": "as §1, §2, §3, §4"}, "TolA224-347": {"molecular_target": "T4, TolA224-347 (Pseudomonas aeruginosa, UniProt P50600)", "T4 construct": "The C-terminal domain of Pseudomonas aeruginosa TolA (TolA^224–347) and its derivatives; His-tagged Im9 (fusion partner, factor Xa site) (N, cleaved yes); made in house; host or cells: E. coli BL21 (DE3)", "assay": "NMR titration (1H,15N-HSQC), TolB peptide binding 15N-labelled TolA", "parameters": "species or system P. aeruginosa", "details": "1H,15N-HSQC spectra; slow chemical exchange", "experimental": "NMR experiments were carried out using spectrometers operating at ^1H frequencies ranging from 500 to 950 MHz. The spectrometers were equipped with Oxford Instruments magnets and home-built triple-resonance pulsed-field gradient probes (600, 750 and 950 MHz) or with Bruker Avance consoles and TCI CryoProbes (500 and 600 MHz). NMR data were acquired using either GE/Omega software using pulse sequences written in-house, or Topspin software and pulse sequences in the Topspin libraries from Bruker Biospin. All data processing was conducted using NMRPipe[49]. Processed spectra were visualized and assigned using the CCPN software suite. All NMR data were collected at 20 °C.\nas §5, §6, §7, §8"}, "[5]": {"molecular_target": "E. coli TolB22-33 peptide", "assay": "ITC"}, "[6]": {"molecular_target": "P. aeruginosa TolB^22–34 fluorescein isothiocyanate (FITC) (P. aeruginosa) (UniProt P50601)", "assay": "FP"}, "Pal (Escherichia coli)": {"molecular_target": "Pal (Escherichia coli) (UniProt P0A912)", "sequence (P0A912 22-173)": "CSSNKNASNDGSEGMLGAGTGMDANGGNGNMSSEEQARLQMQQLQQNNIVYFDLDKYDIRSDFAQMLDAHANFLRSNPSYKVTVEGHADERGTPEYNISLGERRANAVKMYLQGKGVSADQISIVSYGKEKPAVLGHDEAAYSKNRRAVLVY", "details": "cited from earlier work"}, "TolA (Escherichia coli)": {"molecular_target": "TolA (Escherichia coli) (UniProt P19934)", "sequence (P19934 whole entry)": "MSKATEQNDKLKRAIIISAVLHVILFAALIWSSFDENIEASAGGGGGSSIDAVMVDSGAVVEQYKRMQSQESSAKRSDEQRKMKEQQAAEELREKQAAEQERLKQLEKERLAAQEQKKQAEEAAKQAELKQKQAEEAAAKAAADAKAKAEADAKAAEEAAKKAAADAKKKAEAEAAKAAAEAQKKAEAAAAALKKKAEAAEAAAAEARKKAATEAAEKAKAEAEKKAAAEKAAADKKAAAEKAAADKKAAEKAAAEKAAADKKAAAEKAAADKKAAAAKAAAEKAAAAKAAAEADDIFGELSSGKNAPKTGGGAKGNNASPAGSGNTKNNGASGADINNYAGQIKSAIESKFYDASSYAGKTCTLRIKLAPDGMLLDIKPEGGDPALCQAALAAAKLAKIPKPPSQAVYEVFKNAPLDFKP", "details": "cited from earlier work"}, "TolA-GFP at the divisome": {"tested_on": "TolA-GFP at the divisome", "assay": "3D-SIM of TolA-GFP recruitment to the divisome", "assay_type": "cell-based, E. coli", "details": "TolB I25A, I27A background versus wild-type TolB, expressed from plasmid; n = 30; Mann-Whitney U and t test", "source_text": "Live bacteria were mounted between an agarose pad and a coverslip. Imaging was processed at room temperature with a ×60, NA 1.42 oil objective on a Deltavision OMX V3 Blaze (GE) equipped with a 488 laser. Image stacks of several μm thickness were taken with 0.125 μm z-steps and 15 images (three angles and five phases per angle) per z-section and a 3D-structured illumination with stripe separation of 213 nm. Laser power was set at 10% to scan the sample over 4 µm thickness (32 slices) without too much photobleaching. Image stacks were reconstructed using Deltavision softWoRx 6.1.1 software with a Wiener filter of 0.002 using wavelength-specific experimentally determined OTF functions (see ref. [37]). […] Distribution of fluorescence intensity along the x-axis of bacteria was determined using a custom script implemented in MATLAB (version 2012a, MathWorks) (see ref. [40]). […] Intensity along the selected bacteria was measured 11 times between the bacterial end-points, each at a uniformly spaced offset from the bacterial long axis. The mean profile was calculated and normalized to the range 0–100 for comparison between bacteria. Diameter measurements correspond to the height of ring, calculated automatically through ImageJ software from each reconstructed and filtered image. A total of 30 cells were analysed per condition, in triplicate. […]"}, "[7]": {"molecular_target": "T5, C-terminal domain of Pseudomonas aeruginosa TolA (TolA^224–347) (Pseudomonas aeruginosa, UniProt P50600 224-347)", "T5 chain": "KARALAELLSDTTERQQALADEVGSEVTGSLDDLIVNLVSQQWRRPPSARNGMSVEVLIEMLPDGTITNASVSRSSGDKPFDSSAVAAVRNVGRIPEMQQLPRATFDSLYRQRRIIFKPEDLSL", "assay": "FP"}, "[8]": {"molecular_target": "T5, C-terminal domain of Pseudomonas …", "assay": "NMR"}}, "note": "Ends that are not written are not given here. Peptide text beside a SMILES is read from it. * marks the point of attachment. FITC = O=C1OC2(c3ccc(O)cc3Oc3cc(O)ccc32)c2ccc(NC(=S)*)cc21", "data": [{"molecule": "N#CC(C#N)=NNc1cccc(Cl)c1", "note": "[CCCP]", "values": [{"measurement": "effect on FRAP recovery", "setting": "[1]; CCCP 0.1 mM", "result": "measurable effect"}]}, {"molecule": "CC[C@H](C)[C@H](NC(=O)[C@@H](NC(=O)[C@H](CC(C)C)NC(=O)[C@@H]1CCCN1C(=O)[C@H](CC(=O)O)NC(=O)[C@H](C)N)C(C)C)C(=O)N[C@@H](CO)C(=O)N[C@@H](CO)C(=O)NCC(=O)N[C@@H](CC(N)=O)C(=O)N[C@@H](CC(=O)O)C(=O)N[C@@H](CCCNC(=N)N)C(=O)N[C@@H](CCCCNC(=S)Nc1ccc2c(c1)C(=O)OC21c2ccc(O)cc2Oc2cc(O)ccc21)C(N)=O", "note": "[P. aeruginosa TolB22-33] (H-ADPLVISSGNDRK(FITC)-NH2; N-terminus and C-terminus assumed)", "values": [{"measurement": "koff", "setting": "[2]", "result": 0.9, "unit": "s⁻¹"}, {"measurement": "improvement of TolB binding on deletion of the TolA helix", "setting": "[3]", "result": "three-fold"}, {"measurement": "koff", "setting": "[4]", "result": 1.4, "unit": "s⁻¹"}, {"measurement": "kon relative to wild-type complex", "setting": "[4]; helix truncation versus wild-type TolA", "result": "three-fold faster"}]}, {"molecule": "[N-]=[N+]=[N-].[Na+]", "note": "[sodium azide]", "values": [{"measurement": "effect on FRAP recovery", "setting": "[1]; sodium azide 50 µg/µl", "result": "measurable effect"}]}, {"molecule": "ADPLVISSGNDRA-NH2 [TolB22-34]", "values": [{"measurement": "TolA peaks perturbed by TolB peptide binding", "setting": "TolA224-347", "result": "> 80", "unit": "%"}]}, {"molecule": "E. coli TolA C-terminal domain", "values": [{"measurement": "Kd", "setting": "[5]", "result": 42, "unit": "µM"}]}, {"molecule": "TolA224-344 (P. aeruginosa, lacking C-terminal α-helix)", "values": [{"measurement": "Kd", "setting": "[6]", "result": 86, "unit": "µM"}]}, {"molecule": "TolB (from UniProt P0A855)", "values": [{"measurement": "Kd", "setting": "Pal (Escherichia coli)", "result": 0.03, "unit": "µM"}, {"measurement": "Kd", "setting": "TolA (Escherichia coli)", "result": 40, "unit": "µM"}]}, {"molecule": "TolB I25A, I27A", "values": [{"measurement": "divisome recruitment of TolA-GFP (intensity distribution, ring diameter)", "setting": "TolA-GFP at the divisome", "result": "no significant difference"}]}, {"molecule": "ADPLVISSGNDRAK(FITC)", "note": "[P. aeruginosa TolB^22–34 fluorescein isothiocyanate (FITC)]", "values": [{"measurement": "Kd", "setting": "[7]", "result": 250, "unit": "µM"}]}, {"molecule": "ADPLVISSGNDRA-NH2", "note": "[P. aeruginosa TolB^22–34 peptide (the N-terminus of secreted TolB; the TolA box)]", "values": [{"measurement": "Kd", "setting": "[8]", "result": 220, "unit": "µM"}]}]}
